Results as given in US6015560A, “Antibody recognizing endothelial cell ligand for leukocyte CR3” (priority 1995, dated 2000).

Assays:
[1] = system: human umbilical vein endothelial cells; assay: Adherence of neutrophils to cultured (TNF-stimulated) endothelial cells; format: cell-based
Experimental: Human umbilical vein endothelial cells (HUVEC, first passage, Clonetics, San Diego, Calif.) were subcultured at confluence into Terasaki tissue culture wells. After 24 hours, confluent monolayers were used for adherence assays. Monolayers were stimulated with 10 ng/ml TNF alpha (Boehringer Mannheim, Indianapolis, Ind.) at 37° C. for four hours. 30 μl of human neutrophils (10^6 /ml) were labeled with fluorescein by the method of Lo et al. (1991), J. Exp. Med. 173 1493-1500, and preincubated for 15 minutes at 37° C. with 20 μl of peptides (0.5 mM in HAP) or HAP (phosphate buffered saline containing 0.5 mg/ml human serum albumin, 3 mM glucose, and 0.3 U/ml aprotinin) as a control buffer. For some experiments, endothelial cells were pretreated from 10 minutes with Factor X or antibodies against Factor X receptor (EPR-1; Altieri et al. (1990), J. Immunol. 145, 246-253) 12H1 and 9D4 (obtained from Dr. D. Altieri, Scripps Research Institute, Lajolla, Calif.) and then washed. Neutrophils were allowed to adhere to the monolayer for 15 mins. at 37° C. and unbound cells were removed by submersion of the plate in PBS buffer. The number of adherent neutrophils was counted in a 40× microscope field and expressed as a percentage of adherence in control wells with neutrophils treated with HAP buffer alone. The mAb IB4 against CD18 (50 μg/ml; Merck Inc., Rahway, N.J.) served as a positive control.
The procedures for determining the neutrophil adherence to cultured endothelial cells and the transendothelial migration of neutrophils were identical with those of Example 9. Control values were the same as those shown in Example 9.

leukocytes in CSF = assay: Rabbit meningitis model: leukocyte migration into CSF; format: in vivo
Experimental: (§1) The rabbit model was performed according to an established protocol. Specific pathogen free, New Zealand white rabbits (2 kg; Hare Marland, Nutley, N.J.) were anesthetized with valium (2.5 mg/kg, subcutaneously, Hoffman-LaRoche, Nutley, N.J.), ketamine (35 mg/kg, intramuscularly, Aveco, Fort Dodge, Iowa) and xylazine (5 mg/kg, intramuscularly, Miles Laboratories, Shawnee, Kans.) and a helmet of dental acrylic was affixed to the calvarium. Twenty four hours later, the rabbits were anesthetized with ethyl carbamate (1.75 g/kg; Aldrich Chemical Co., Milwaukee, Wis.) and pentobarbital (15 mg/kg; Abbott Laboratories, Abbott Park, Ill.) and placed in a stereotaxic frame. A spinal needle was introduced into the cisterna magna and 300 μl of CSF was withdrawn. The animals were challenged intracisternally with 10^8 heat killed, unencapsulated pneumococcus strain R6 introduced in 200 μl of saline (time 0). One hour later, animals were treated with peptides dissolved in 1 ml of saline by intravenous injection into the right marginal ear vein. The concentration of FHA was 0.1 μM and that of the FHA Ia, Factor X II, and scrambled FHA II peptides was 10 μM. For the acetyl-FHA II, acetyl/amide-FHA II, dimer of FHA II and trimer of FHA II peptides, the concentration was 10^-3 μM. The concentration of FHA II is given in the results section. Samples of CSF were withdrawn at hourly intervals after pneumococcal inoculation and leukocyte density was measured using a cell counter (Coulter Electronics Inc., Hialeah, Fla.). CSF samples were centrifuged at 10,000×g for 5 minutes and the supernatant was stored at -70° C. until assayed for protein concentration using the bicinchoninic acid method (BCA Kit, Pierce Chemical Co., Rockford, Ill.) and for lactate concentration (Lactate Detection Kit, Sigma, St. Louis, Mo.). Statistically significant differences between treatments were determined by a one way analysis of variance test.
The anti-inflammatory effects of the administered peptides were assessed in the rabbit model for meningitis by the procedures described in Example 10. The animals received 1 ml of 1 uM peptide intravenously. In a slight departure from the protocol described in Example 10, samples of blood were drawn from the left marginal ear vein 30 minutes after the administration of the peptides to determine peripheral leukocyte concentrations.

blood brain barrier = assay: Rabbit meningitis model: CSF protein and lactate (blood brain barrier permeability); format: in vivo
Experimental: as §1
Loss of barrier function of the cerebral capillary endothelium during inflammation is reflected by an influx of serum proteins into the CSF. […] To examine if the peptides were able to ameliorate these measures of cerebral injury, CSF protein and lactate concentrations were measured hourly in peptide-treated and control animals (Table 10).
Leukocyte migration into the CSF in bacterial meningitis is associated with loss of barrier function of the cerebral capillary endothelium, resulting in influx of serum proteins into the CSF. To determine whether FHA peptides were able to prevent this leukocyte-dependent injury, protein concentrations in the CSF were measured throughout the course of inflammation in peptide-treated and control animals.

C3bi = assay: Inhibition of binding of 12.1F9 to E-C3bi by peptides; set-up: species or system human
Text: The antibody 12.1F9 maps to the region 1279-2011 of FHA. When the derived amino acid sequence of this region was compared to that of C3, a region of 11 amino acids with similar sequence was found between FHA residues 1408-1418 and C3 residues 1187-1197 (Table 14). […] However, the FHA-20-mer and the homologous C3-derived peptide blocked binding by up to 60%.

[2] = 6 hours, peptides 10 μM, FHA 0.1 μM

How did the “reduction of neutrophil binding to HUVEC” value ([1]; 25 μg/ml=0.3 μM) turn out when filamentous hemagglutinin [native FHA] was run?
The value was 51±8%.

And the “inhibition of adherence of neutrophils to cultured endothelial cells” value ([1]; 50 ug/ml, 0.2 uM)?
The value was 51±7%.

What about the “maximal inhibition of neutrophil attachment” value ([1]; concentration dependence) of the same substance?
The value was ~ 50%.

What about the “anti-inflammatory effect (in words)” value (leukocytes in CSF; 10^-3 μM i.v.) of the same substance?
Its value is “ineffective”.

And the “mean leukocyte concentration in CSF” value (leukocytes in CSF; 7 hours, FHA 0.1 μM (25 μg) i.v.)?
Its value is 2096±450 /μl CSF.

And the “leukocyte density vs control (in words)” value (leukocytes in CSF; 7 hours, 10^-1 μM)?
Its value is “statistically significantly different from control”.

What about the “reduction of CSF leukocytosis” value (leukocytes in CSF; peptides 10 μM, FHA 0.1 μM) of the same substance?
The value was over 60%.

What about the “protein influx into CSF and lactate generation (in words)” value (blood brain barrier; 10 μM peptides, 0.1 μM FHA) of the same substance?
Its value is “significantly protective for protein influx and lactate generation”.

And the “Total protein in CSF” value (blood brain barrier; 6 hours)?
Its value is 1.70 ± 0.33 mg/mL.

And the “Lactate in CSF” value (blood brain barrier; [2])?
Its value is 25.0 ± 5.3 mg/100 ml.

And the “Protein in CSF” value (blood brain barrier; [2])?
Its value is 1.3 ± 0.3 mg/ml CSF.

And the “Total protein in CSF” value (blood brain barrier; 7 hours)?
Its value is 1.86 ± 0.76 mg/mL.

And the “block of binding of 12.1F9 to C3bi (in words)” value (C3bi)?
The value was “blocked binding almost completely”.

And the Adherence index (C3bi; peptides 50 μg/ml, normalized to a control value of 100)?
The Adherence index was 16 ± 16.
